One block for each compound: values may come before it. Calls of active or inactive are those of the source. The rule behind the calls is not given here.
Columns and labels:
[1] = Cytotoxicity against human HeLa cells expressing YFP parkin treated with FCCP/ oligomycin assessed as highest safety dose by DAPI staining analysis; assay type: toxicity, cell-based; conditions: read-out: Activity
[2] = Cytotoxicity against human HeLa cells expressing YFP parkin assessed as highest safety dose by DAPI staining analysis; assay type: toxicity, cell-based; conditions: read-out: Activity
[3] = system: Mus musculus; assay: Protection against PFFs induced alpha-synuclein fibril formation in C57BL/6 mouse assessed as reduction in phosphorylated S129 alpha-synuclein level at 6.25 to 50 mg/kg, po administered twice daily; assay type: functional, organism-based; conditions: dose 6.25-50 mg/kg
[4] = system: Mus musculus; assay: Protection against PFFs induced alpha-synuclein fibril formation in C57BL/6 mouse assessed as reduction in phosphorylated S129 alpha-synuclein (250-12) level at 6.25 to 50 mg/kg, po administered twice daily; assay type: functional, organism-based; conditions: dose 6.25-50 mg/kg
[5] = system: Mus musculus; assay: Protection against PFFs induced alpha-synuclein fibril formation in C57BL/6 mouse assessed as reduction in phosphorylated S129 alpha-synuclein monomer level at 6.25 to 50 mg/kg, po administered twice daily; assay type: functional, organism-based; conditions: dose 6.25-50 mg/kg
[6] = system: Primary hippocampal neuron; assay: Protection against PFFs induced alpha-synuclein fibril formation in C57BL/6 mouse derived primary hippocampal neurons assessed as reduction in phosphorylated S129 alpha-synuclein level at 0.1 to 25 uM measured after 6 days; assay type: functional, cell-based; conditions: dose 0.1-25 µM, time 6.0 day
[7] = system: Primary hippocampal neuron; assay: Protection against PFFs induced alpha-synuclein fibril formation in C57BL/6 mouse derived primary hippocampal neurons assessed as reduction in phosphorylated S129 alpha-synuclein (250-12) level at 0.1 to 25 uM measured after 6 days; assay type: functional, cell-based; conditions: dose 0.1-25 µM, time 6.0 day
[8] = system: Primary hippocampal neuron; assay: Protection against PFFs induced alpha-synuclein fibril formation in C57BL/6 mouse derived primary hippocampal neurons assessed as reduction in phosphorylated S129 alpha-synuclein monomer level at 0.1 to 25 uM measured after 6 days; assay type: functional, cell-based; conditions: dose 0.1-25 µM, time 6.0 day
[9] = system: HeLa; assay: Induction of mitophagy in human HeLa Mito-Keima cells treated with FCCP/oligomycin measured by FACS analysis; assay type: functional, cell-based
[10] = system: HeLa; assay: Induction of mitophagy in human HeLa YFP-Parkin cells treated with FCCP/oligomycin assessed as cells with parkin recruited to mitochondria at 60 mins by FACS analysis; assay type: functional, cell-based; conditions: 1 h
[11] = Cmax in C57BL/6 mouse at 10 mg/kg, po administered as single dose by mass spectrometry; assay type: ADME, organism-based; set-up: dose 10 mg/kg, route po; conditions: in vivo
[12] = Cmax in C57BL/6 mouse at 25 mg/kg, po administered as single dose by mass spectrometry; assay type: ADME, organism-based; set-up: dose 25 mg/kg, route po; conditions: in vivo
[13] = Cmax in C57BL/6 mouse at 50 mg/kg, po administered as single dose by mass spectrometry; assay type: ADME, organism-based; set-up: dose 50 mg/kg, route po; conditions: in vivo
[14] = Cmax in C57BL/6 mouse at 100 mg/kg, po administered as single dose by mass spectrometry; assay type: ADME, organism-based; set-up: dose 100 mg/kg, route po; conditions: in vivo
[15] = AUClast in C57BL/6 mouse at 10 mg/kg, po administered as single dose by mass spectrometry; assay type: ADME, organism-based; set-up: dose 10 mg/kg, route po; conditions: in vivo
[16] = AUClast in C57BL/6 mouse at 25 mg/kg, po administered as single dose by mass spectrometry; assay type: ADME, organism-based; set-up: dose 25 mg/kg, route po; conditions: in vivo
[17] = AUClast in C57BL/6 mouse at 50 mg/kg, po administered as single dose by mass spectrometry; assay type: ADME, organism-based; set-up: dose 50 mg/kg, route po; conditions: in vivo
[18] = AUClast in C57BL/6 mouse at 100 mg/kg, po administered as single dose by mass spectrometry; assay type: ADME, organism-based; set-up: dose 100 mg/kg, route po; conditions: in vivo
[19] = system: Mus musculus; assay: Protection against kidney fibrosis in cisplatin-challenged C57BL/6 mouse assessed as rescue of KIM-1 at 6.25 to 50 mg/kg, po administered once a day for 3 days; assay type: functional, organism-based; conditions: dose 6.25-50 mg/kg, time 3.0 day
[20] = system: Mus musculus; assay: Protection against kidney fibrosis in cisplatin-challenged C57BL/6 mouse assessed as reduction in Gdf15 expression at 6.25 to 50 mg/kg, po administered once a day for 3 days; assay type: functional, organism-based; conditions: dose 6.25-50 mg/kg, time 3.0 day
[21] = system: Mus musculus; assay: Protection against kidney fibrosis in cisplatin-challenged C57BL/6 mouse assessed as reduction in Tnfrsf12a expression at 6.25 to 50 mg/kg, po administered once a day for 3 days; assay type: functional, organism-based; conditions: dose 6.25-50 mg/kg, time 3.0 day
[22] = Cytotoxicity against human HeLa cells expressing YFP parkin in presence of FCCP/oligomycin at 25 uM assessed as maximum cell death by DAPI staining analysis relative to control; assay type: toxicity, cell-based

EC50 [9]: 153 nM
EC50 [10]: 1150 nM
Cmax [11]: 0.35 µM
Cmax [12]: 1.15 µM
Cmax [13]: 9.21 µM
Cmax [14]: 19.4 µM
AUC(0-t) [15]: 0.51 µM·h
AUC(0-t) [16]: 1.91 µM·h
AUC(0-t) [17]: 17.3 µM·h
AUC(0-t) [18]: 85.6 µM·h
SMILES: c1ccc2c(c1)OC[C@H](N1CCOCC1)[C@H]2Nc1ncnc2[nH]c(C3CC3)cc12
MNTC [1]: 25 µM
MNTC [2]: 25 µM
Activity [3]: Active
Activity [4]: Active
Activity [5]: Active
Activity [6]: Active
Activity [7]: Active
Activity [8]: Active
Activity [19]: Active
Activity [20]: Active
Activity [21]: Active

SMILES: COC1CN([C@@H]2COc3ccccc3[C@H]2Nc2ncnc3[nH]c(C4CC4)cc23)C1
MNTC [1]: 25 µM
MNTC [2]: 25 µM
Emax at 25 µM [22]: 22.5%

— ChEMBL document CHEMBL5393453, “Compositions and methods of using the same for treatment of neurodegenerative and mitochondrial disease” (2021)
